Assay results from US5854204A, “Aβ peptides that modulate β-amyloid aggregation” (priority 1996, dated 1998).
Numbered stars: 1 amine (or outer) side, 2 acyl side, 3 side chain; on linkers, the order of the positions; unused ones are H or OH. Square brackets hold non-standard residues; d marks the D form. Peptide text beside a SMILES is read from it. * marks the point of attachment. Cholyl = C[C@H](CCC(=O)*)[C@H]1CC[C@H]2[C@@H]3[C@H](O)C[C@@H]4C[C@H](O)CC[C@]4(C)[C@H]3C[C@H](O)[C@]12C; X2 = O=C(C1(O)C[C@H](O)[C@@H](N[*:1])[C@H]([C@H](O)[C@H](O)CO)O1)[*:2]; βAla = NCCC(=O)O

Key:
[1] = molecular target: T1, Aβ1-40 (Homo sapiens, UniProt P05067);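 further: Aβ nucleation assay tracking fiber polymerization from monomer by turbidity (light scattering), shaken continuously in 96-well plates, read every 15 min over 5 h, compared with compound-free control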
T1 sequence (P05067 672-711): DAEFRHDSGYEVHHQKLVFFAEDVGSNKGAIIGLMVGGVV
Description: (§1) The nucleation assay is employed to determine the ability of test compounds to alter (e.g. inhibit) the early events in formation of β-AP fibers from monomeric β-AP. […] The time delay before polymerization of β-AP monomer can be quantified as well as the extent of formation of insoluble fiber by light scattering (turbidity). Polymerization reaches equilibrium when the maximum turbidity reaches a plateau. […] The threshold of sensitivity for the measurement of turbidity is in the range of 15-20 μM β-AP. […] This assay can be performed using stirring or shaking to accelerate polymerization, thereby increasing the speed of the assay. Moreover the assay can be adapted to a 96-well plate format to screen multiple compounds.
(§2) HFIP-solubilized peptide is sonicated in a waterbath sonicator for 5 min at highest setting, then evaporated to dryness under a stream of argon. […] Test compounds are dissolved in DMSO at a 100× concentration. […] Ten microliters of the mixture is then added to the bottom of a well of a Corning Costar ultra low binding 96-well plate (Corning Costar, Cambridge Mass.; cat. No. 2500). […] The plate is then returned to the shaker and shaken continuously for 5 hours. Turbidity readings are taken at 15 minute intervals.
(§3) Accordingly a fold increase in lag time of 1.0 indicates no change in lag time, whereas numbers >1.0 indicate an increase in lag time. The "% inhibition of plateau", which is a measure of the ability of the compound to decrease the total amount of aggregation, refers to the reduction of the final turbidity in the presence of the test compound expressed as a percent of the control without the test compound.

[2] = molecular target: T1, Aβ1-40; experiment: biochemical; conditions: read-out: % Inucl'n (percent reduction in maximum turbidity)
Description: as §1, §2, §3

[3] = molecular target: T1, Aβ1-40; experiment: Seeded extension assay (thioflavin T fluorescence); type: biochemical; design: Natural β-AP (β-AP1-40) was obtained commercially from Bachem (Torrance, Calif.); purchased Bachem (Torrance, Calif.); conditions: Table V; 25 mole % inhibitor
Description: The seeded extension assay can be employed to measure the rate of Aβ fiber formed in a solution of Aβ monomer following addition of polymeric Aβ fiber "seed". The ability of test compounds to prevent further deposition of monomeric Aβ to previously deposited amyloid is determined using a direct indicator of β-sheet formation using fluorescence. In contrast with the nucleation assay, the addition of seed provides immediate nucleation and continued growth of preformed fibrils without the need for continuous mixing, and thus results in the absence of a lag time before polymerization starts. Since this assay uses static polymerization conditions, the activity of positive compounds in the nucleation assay can be confirmed in this second assay under different conditions and with an additional probe of amyloid structure.
Samples of the solution are then diluted in thioflavin T (Th-T). The polymer-specific association of Th-T with Aβ produces a fluorescent complex that allows the measurement of the extent of fibril formation (Levine, H. (1993) Protein Science 2:404-410). In particular, association of Th-T with aggregated β-AP, but not monomeric or loosely associated β-AP, gives rise to a new excitation (ex) maximum at 450 nm and an enhanced emission (em) at 482 nm, compared to the 385 nm (ex) and 445 nm (em) for the free dye. Small aliquots of the polymerization mixture contain sufficient fibril to be mixed with Th-T to allow the monitoring of the reaction mixture by repeated sampling. A linear growth curve is observed in the presence of excess monomer. The formation of thioflavin T responsive β-sheet fibrils parallels the increase in turbidity observed using the nucleation assay.
To prepare the stock seed, 1 ml of the Aβ monomer preparation, is incubated for approximately 8 days at 37° C. and sheared sequentially through an 18, 23, 26 and 30 gauge needle 25, 25, 50, and 100 times respectively. 2 μl samples of the sheared material is taken for fluorescence measurements after every 50 passes through the 30 gauge needle until the fluorescence units (FU) plateau (approx. 100-150×). Test compounds are prepared by dissolving an appropriate amount of test compound in 1× PBS to a final concentration of 1 mM (10× stock). If insoluble, the compound is dissolved in 1/10 volume of DMSO and diluted in 1× PBS to 1 mM. A further 1/10 dilution is also prepared to test each candidate at both 100 μM and 10 μM.
To perform the seeded extension assay, each sample is set up with 50 μl of 200 μM monomer, 125 FU sheared seed (a variable quantity dependent on the batch of seed, routinely 3-6 μl) and 10 μl of 10× modulator solution. The sample volume is then adjusted to a final volume of 100 μl with 1× PBS. Two concentrations of each modulator typically are tested: 100 μM and 10 μM, equivalent to a 1:1 and a 1:10 molar ratio of monomer to modulator. The controls include an unseeded reaction to confirm that the fresh monomer contains no seed, and a seeded reaction in the absence of any modulators, as a reference to compare against candidate modulators. The assay is incubated at 37° C. for 6 h, taking 2 μl samples hourly for fluorescence measurements. To measure fluorescence, a 2 μl sample of Aβ is added to 400 μl of Thioflavin-T solution (50 mM Potassium Phosphate […] pH 7.5). The samples are vortexed and the fluorescence is read in a 0.5 ml micro quartz cuvette at EX 450 nm and EM 482 nm (Hitachi 4500 Fluorimeter).
The modulators were evaluated in the nucleation and seeded extension assays described in Example 6 and the results are summarized below in Table V. The change in lag time (ΔLag) is presented as the ratio of the lag time observed in the presence of the test compound to the lag time of the control. […] Inhibition (% Inucl'n) is listed as the percent reduction in the maximum observed turbidity in the control at the end of the assay time period. […]

| Structure (SMILES) | inhibitory activity on Aβ aggregation [1] | inhibition at 100 % [2] | % Inhibition of Plateau [1] | inhibition at 33 % [2] | % Iext'n (percent reduction of thioflavin-T fluorescence) [3] |
| --- | --- | --- | --- | --- | --- |
| C[C@H](CCC(=O)O)[C@H]1CC[C@H]2[C@@H]3[C@H](O)C[C@@H]4C[C@H](O)CC[C@]4(C)[C@H]3C[C@H](O)[C@]12C [PPI-293, Cholic acid, reference compound] | had no effect on Aβ aggregation | 0% |  |  |  |
| CC(C)C[C@H](NC(=O)[C@H](CCCCN)NC(=O)[C@H](CCC(N)=O)NC(=O)[C@H](Cc1c[nH]cn1)NC(=O)CC[C@@H](C)[C@H]1CC[C@H]2[C@@H]3[C@H](O)C[C@@H]4C[C@H](O)CC[C@]4(C)[C@H]3C[C@H](O)[C@]12C)C(=O)N[C@H](C(=O)N[C@@H](Cc1ccccc1)C(=O)N[C@@H](Cc1ccccc1)C(=O)O)C(C)C [PPI-348] (Cholyl-HQKLVFF-OH) |  |  | 49% | 70% |  |
| CC(C)C[C@H](NC(=O)[C@H](CCCCN)NC(=O)[C@H](CCC(N)=O)NC(=O)CC[C@@H](C)[C@H]1CC[C@H]2[C@@H]3[C@H](O)C[C@@H]4C[C@H](O)CC[C@]4(C)[C@H]3C[C@H](O)[C@]12C)C(=O)N[C@H](C(=O)N[C@@H](Cc1ccccc1)C(=O)N[C@@H](Cc1ccccc1)C(=O)O)C(C)C [PPI-349, cholyl-Aβ15-20] |  | 100% |  |  | 56% |
| CC(C)C[C@H](NC(=O)[C@H](CCCCN)NC(=O)CC[C@@H](C)[C@H]1CC[C@H]2[C@@H]3[C@H](O)C[C@@H]4C[C@H](O)CC[C@]4(C)[C@H]3C[C@H](O)[C@]12C)C(=O)N[C@H](C(=O)N[C@@H](Cc1ccccc1)C(=O)N[C@@H](Cc1ccccc1)C(=O)O)C(C)C [PPI-350, cholyl-Aβ16-20] |  |  |  |  | 11% |
| CC(C)C[C@H](NC(=O)[C@H](CCCCN)NC(=O)CC[C@@H](C)[C@H]1CC[C@H]2[C@@H]3[C@H](O)C[C@@H]4C[C@H](O)CC[C@]4(C)[C@H]3C[C@H](O)[C@]12C)C(=O)N[C@H](C(=O)N[C@@H](Cc1ccccc1)C(=O)N[C@@H](Cc1ccccc1)C(=O)O)[C@@H](C)O [PPI-369] (Cholyl-KLTFF-OH) |  |  | ~ 0% |  | 44% |
| CC(C)C[C@H](NC(=O)[C@H](CCCCN)NC(=O)CC[C@@H](C)[C@H]1CC[C@H]2[C@@H]3[C@H](O)C[C@@H]4C[C@H](O)CC[C@]4(C)[C@H]3C[C@H](O)[C@]12C)C(=O)N[C@H](C(=O)N[C@@H](C)C(=O)N[C@@H](Cc1ccccc1)C(=O)O)C(C)C [PPI-370, cholyl-Aβ16-20 Phe19- >Ala] (Cholyl-KLVAF-OH) |  |  | 73% |  | 31% |
| CC(C)C[C@H](NC(=O)[C@H](CCCCN)NC(=O)CC[C@@H](C)[C@H]1CC[C@H]2[C@@H]3[C@H](O)C[C@@H]4C[C@H](O)CC[C@]4(C)[C@H]3C[C@H](O)[C@]12C)C(=O)N[C@H](C(=O)N[C@@H](Cc1ccccc1)C(=O)N[C@@H](Cc1ccccc1)C(=O)NCCC(=O)O)C(C)C [PPI-371] (Cholyl-KLVFF[βAla]-OH) |  | 76% |  |  | 80% |
| CC(C)C[C@H](NC(=O)[C@@H](NC(=O)[C@H](Cc1ccccc1)NC(=O)[C@H](CCCCN)NC(=O)[C@H](Cc1ccccc1)NC(=O)CC[C@@H](C)[C@H]1CC[C@H]2[C@@H]3[C@H](O)C[C@@H]4C[C@H](O)CC[C@]4(C)[C@H]3C[C@H](O)[C@]12C)C(C)C)C(=O)O [PPI-372] (Cholyl-FKFVL-OH) |  | 45% |  |  | 37% |
| CC(=O)N[C@H]1[C@H]([C@H](O)[C@H](O)CO)OC(O)(C(=O)N[C@@H](CCCCN)C(=O)N[C@@H](CC(C)C)C(=O)N[C@H](C(=O)N[C@@H](Cc2ccccc2)C(=O)N[C@@H](Cc2ccccc2)C(=O)O)C(C)C)C[C@@H]1O (stereo partly shown) [PPI-373] (Ac-[X2]KLVFF-OH) |  | 16% |  |  | 8% |
| CC(C)C[C@H](NC(=O)[C@H](CCCCN)NC(=O)CCCC[C@@H]1SC[C@@H]2NC(=N)N[C@@H]21)C(=O)N[C@H](C(=O)N[C@@H](Cc1ccccc1)C(=O)N[C@@H](Cc1ccccc1)C(=O)O)C(C)C [PPI-374, iminobiotinyl-Aβ16-20] |  |  | 86% |  | 0% |
| CC(C)[C@H](NC(=O)[C@@H](NC(=O)[C@H](CCCCN)NC(=O)CC[C@@H](C)[C@H]1CC[C@H]2[C@@H]3[C@H](O)C[C@@H]4C[C@H](O)CC[C@]4(C)[C@H]3C[C@H](O)[C@]12C)[C@@H](C)O)C(=O)N[C@@H](Cc1ccccc1)C(=O)N[C@@H](Cc1ccccc1)C(=O)O [PPI-375] (Cholyl-KTVFF-OH) |  | 18% |  |  | 21% |
| CC(C)C[C@H](NC(=O)CC[C@@H](C)[C@H]1CC[C@H]2[C@@H]3[C@H](O)C[C@@H]4C[C@H](O)CC[C@]4(C)[C@H]3C[C@H](O)[C@]12C)C(=O)N[C@H](C(=O)N[C@@H](Cc1ccccc1)C(=O)N[C@@H](Cc1ccccc1)C(=O)N[C@@H](C)C(=O)N[C@@H](CCC(=O)O)C(=O)O)C(C)C [PPI-379] (Cholyl-LVFFAE-OH) |  | 55% |  |  | 16% |
| CC(C)C[C@H](NC(=O)CC[C@@H](C)[C@H]1CC[C@H]2[C@@H]3[C@H](O)C[C@@H]4C[C@H](O)CC[C@]4(C)[C@H]3C[C@H](O)[C@]12C)C(=O)N[C@H](C(=O)N[C@@H](Cc1ccccc1)C(=O)N[C@@H](Cc1ccccc1)C(=O)O)C(C)C [PPI-380] |  |  |  | 72% | 51% |
| CC(C)C[C@H](NC(=O)CC[C@@H](C)[C@H]1CC[C@H]2[C@@H]3[C@H](O)C[C@@H]4C[C@H](O)CC[C@]4(C)[C@H]3C[C@H](O)[C@]12C)C(=O)N[C@H](C(=O)N[C@@H](Cc1ccccc1)C(=O)N[C@@H](Cc1ccccc1)C(=O)N[C@H](C)C(=O)O)C(C)C [PPI-381] |  | 56% |  |  | 11% |
| CC(C)C[C@H](NC(=O)CC[C@@H](C)[C@H]1CC[C@H]2[C@@H]3[C@H](O)C[C@@H]4C[C@H](O)CC[C@]4(C)[C@H]3C[C@H](O)[C@]12C)C(=O)N[C@H](C(=O)N[C@@H](Cc1ccccc1)C(=O)N[C@@H](Cc1ccccc1)C(=O)N[C@@H](C)C(N)=O)C(C)C [PPI-382] |  | -200% |  |  | 91% |
| COC(=O)[C@H](C)NC(=O)[C@H](Cc1ccccc1)NC(=O)[C@H](Cc1ccccc1)NC(=O)[C@@H](NC(=O)[C@H](CC(C)C)NC(=O)CC[C@@H](C)[C@H]1CC[C@H]2[C@@H]3[C@H](O)C[C@@H]4C[C@H](O)CC[C@]4(C)[C@H]3C[C@H](O)[C@]12C)C(C)C [PPI-401] |  |  |  |  | 0% |
| C[C@H](CCC(=O)NCC(=O)N[C@@H](Cc1ccccc1)C(=O)N[C@@H](Cc1ccccc1)C(=O)O)[C@H]1CC[C@H]2[C@@H]3[C@H](O)C[C@@H]4C[C@H](O)CC[C@]4(C)[C@H]3C[C@H](O)[C@]12C [PPI-438] |  | 0% |  |  |  |
